Experimental data: US9732094B2, “Arylquinazolines” (Merck Patent GmbH, priority 2013, dated 2017)
Read-outs that look alike come from different tables or passages of the source.

Legend:
Kv11.1 (hERG) = Kv11.1 (hERG) (Homo sapiens (Human), UniProt Q12809); test: Kv11.1 (hERG) ion channel activity (patch clamp assay), HEK293 cells transfected with hERG gene; conditions: hERG patch clamp assay (cells without asterisk)
DNA-PK = DNA-PK (Homo sapiens (Human), UniProt P78527); test: DNA-PK assay (biochemical), flashplate 33P-ATP kinase assay; conditions: biochemical DNA-PK assay
Procedure, shortened: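 Radiometric kinase reaction in streptavidin-coated flashplates, stopped with 200 mM EDTA, then 30 min room-temperature incubation and saline washes.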

[1] = target: DNA-PK phosphorylation at serine 2056 (Homo sapiens (Human), UniProt P78527); test: DNA-PK phosphorylation at serine 2056 (cellular), bleomycin-treated HCT116 cells, ELISA; type: cell-based; conditions: cellular DNA-PK phosphorylation at serine 2056, HCT116; read-out: IC50 pDNA-PK
Procedure, shortened: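 HCT116, MEM alpha + 10% FCS, 37 °C/10% CO2, seeded o/n. Cpd + 10 μM bleomycin, 6 h. ELISA, chemiluminescence; phospho/total DNA-PKcs ratio, DMSO = blank.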

Sequence of Kv11.1 (hERG) (Q12809 whole entry): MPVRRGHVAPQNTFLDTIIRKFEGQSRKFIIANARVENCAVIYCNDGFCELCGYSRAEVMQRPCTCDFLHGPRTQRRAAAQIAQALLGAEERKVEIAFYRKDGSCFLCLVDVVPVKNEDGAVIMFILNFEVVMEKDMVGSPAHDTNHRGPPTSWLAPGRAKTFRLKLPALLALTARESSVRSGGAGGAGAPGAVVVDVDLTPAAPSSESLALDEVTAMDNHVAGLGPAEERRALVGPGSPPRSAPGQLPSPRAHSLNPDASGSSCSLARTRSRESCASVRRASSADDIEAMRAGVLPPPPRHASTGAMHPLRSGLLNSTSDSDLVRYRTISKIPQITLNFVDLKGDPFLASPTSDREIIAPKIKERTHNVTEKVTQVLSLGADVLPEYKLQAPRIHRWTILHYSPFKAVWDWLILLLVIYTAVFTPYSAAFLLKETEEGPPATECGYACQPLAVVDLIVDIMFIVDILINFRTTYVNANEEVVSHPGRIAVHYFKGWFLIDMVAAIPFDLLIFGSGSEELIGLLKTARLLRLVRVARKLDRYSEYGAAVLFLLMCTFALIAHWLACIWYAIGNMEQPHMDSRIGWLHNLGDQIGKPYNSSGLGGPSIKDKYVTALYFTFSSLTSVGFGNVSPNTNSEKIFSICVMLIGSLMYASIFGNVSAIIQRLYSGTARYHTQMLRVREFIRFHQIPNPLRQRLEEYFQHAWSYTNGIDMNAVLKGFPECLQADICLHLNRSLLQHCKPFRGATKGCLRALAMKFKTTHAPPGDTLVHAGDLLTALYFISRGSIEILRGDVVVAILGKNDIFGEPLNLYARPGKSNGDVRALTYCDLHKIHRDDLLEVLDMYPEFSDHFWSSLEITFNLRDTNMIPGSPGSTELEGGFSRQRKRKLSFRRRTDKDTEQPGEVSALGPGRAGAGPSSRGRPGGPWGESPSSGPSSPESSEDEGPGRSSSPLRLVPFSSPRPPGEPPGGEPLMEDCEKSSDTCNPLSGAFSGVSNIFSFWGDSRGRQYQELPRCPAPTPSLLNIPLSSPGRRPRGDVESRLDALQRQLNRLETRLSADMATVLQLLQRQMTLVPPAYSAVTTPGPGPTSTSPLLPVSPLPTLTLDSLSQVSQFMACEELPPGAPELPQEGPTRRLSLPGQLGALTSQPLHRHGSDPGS

Row | Structure (SMILES) | Ki (Kv11.1 (hERG); read-out: Ki [Kv1.11 hERG]) [nM] | IC50 (DNA-PK) [nM] | IC50 [1] [nM] | Ki (Kv11.1 (hERG); Ki [Kv1.11 hERG]) [nM]
1 | COc1nccnc1C(O)c1cc(-c2ncnc3cc(N4CCOCC4)ccc23)ccc1F (stereo not drawn) [Example 394, [2-Fluoro-5-(7-morpholin-4-yl-quinazolin-4-yl)-phenyl]-(3-methoxy-pyrazin-2-yl)-methanol] | < 10000 | 3 to 7 | 500 to 5000 | –
2 | OC(c1cc(-c2ncnc3cc(N4CCOCC4)ccc23)c(F)cc1Cl)c1nccn2ccnc12 (stereo not drawn) [Example 397, [2-Chloro-4-fluoro-5-(7-morpholin-4-yl-quinazolin-4-yl)-phenyl]imidazo-[1,2-a]pyrazin-8-yl-methanol] | > 25000 | 3 to 7 | < 500 | –
3 | CCn1c(C(O)c2ccc(F)c(-c3ncnc4cc(N5CCOCC5)ccc34)c2)cccc1=O (stereo not drawn) [Example 398, 1-Ethyl-6-{[4-f1uoro-3-(7-morpholin-4-yl-quinazolin-4-yl)-phenyl]hydroxy-methyl}-1H-pyridin-2-one] | > 25000 | 3 to 7 | 500 to 5000 | –
4 | OC(c1ccc(F)c(-c2ncnc3cc(N4CCOCC4)ccc23)c1)c1nnc2ccccn12 (stereo not drawn) [Example 399, [4-Fluoro-3-(7-morpholin-4-yl-quinazolin-4-yl)-phenyl]-[1,2,4]-triazolo[4,3-a]pyridin-3-ylmethanol] | > 25000 | < 3 | 500 to 5000 | –
5 | Cn1c(C(O)c2cc(-c3ncnc4cc(N5CCOCC5)ccc34)ccc2Cl)cccc1=O (stereo not drawn) [Example 400, 6-{[2-Chloro-5-(7-morpholin-4-yl-quinazolin-4-yl)-phenyl]hydroxy-methyl}-1-methyl-1H-pyridin-2-one] | – | < 3 | < 500 | 15000 to 25000
6 | Cn1c(C(O)c2cc(-c3ncnc4cc(N5CCOCC5)ccc34)ccc2F)cccc1=O (stereo not drawn) [Example 401, 6-{[2-Fluoro-5-(7-morpholin-4-yl-quinazolin-4-yl)-phenyl]hydroxy-methyl}-1-methyl-1H-pyridin-2-one] | – | 3 to 7 | 500 to 5000 | 10000 to 15000
7 | Cn1ncc2c(C(O)c3cc(-c4ncnc5cc(N6CCOCC6)ccc45)c(F)cc3Cl)ncnc21 (stereo not drawn) [Example 402, [2-Chloro-4-fluoro-5-(7-morpholin-4-yl-quinazolin-4-yl)-phenyl]-(1-methyl-1H-pyrazolo[3,4-d}-pyrimidin-4-yl)-methanol] | – | 3 to 7 | 500 to 5000 | 15000 to 25000
8 | Cn1ncc2c(C(O)c3cc(-c4ncnc5cc(N6CCOCC6)ccc45)c(F)cc3F)ncnc21 (stereo not drawn) [Example 403, [2,4-Difluoro-5-(7-morpholin-4-yl-quinazolin-4-yl)-phenyl]-(1-methyl-1H-pyrazolo[3,4-d}-pyrimidin-4-yl)-methanol] | – | 3 to 7 | 500 to 5000 | 15000 to 25000
9 | Cn1ncc2c(C(O)c3ccc(F)c(-c4ncnc5cc(N6CCOCC6)ccc45)c3)ncnc21 (stereo not drawn) [Example 404, [4-Fluoro-3-(7-morpholin-4-yl-quinazolin-4-yl)-phenyl]-(1-methyl-1H-pyrazolo[3,4-d}-pyrimidin-4-yl)-methanol] | > 25000 | 3 to 7 | < 500 | –
10 | OC(c1cc(-c2ncnc3cc(N4CCOCC4)ccc23)ccc1F)c1ncnc2ccsc12 (stereo not drawn) [Example 405, [2-Fluoro-5-(7-morpholin-4-yl-quinazolin-4-yl)-phenyl]thieno[3,2-d}-pyrimidin-4-yl-methanol] | < 10000 | < 3 | < 500 | –
11 | OC(c1cc(-c2ncnc3cc(N4CCOCC4)ccc23)ccc1F)c1ncnc2sccc12 (stereo not drawn) [Example 406, [2-Fluoro-5-(7-morpholin-4-yl-quinazolin-4-yl)-phenyl]thieno[2,3-d}-pyrimidin-4-yl-methanol] | – | < 3 | < 500 | 10000 to 15000
12 | Cc1cncnc1C(C(N)=O)c1cc(-c2ncnc3cc(N4CCOCC4)ccc23)ccc1Cl (stereo not drawn) [Example 407, 2-[2-Chloro-5-(7-morpholin-4-yl-quinazolin-4-yl)-phenyl]-2-(5-methyl-pyrimidin-4-yl)-acetamide] | 15000 to 25000 | < 3 | 500 to 5000 | –
13 | COc1cncnc1C(O)c1cc(-c2ncnc3cc(N4CCOCC4)ccc23)ccc1Cl (stereo not drawn) [Example 408, [2-Chloro-5-(7-morpholin-4-yl-quinazolin-4-yl)-phenyl]-(5-methoxy-pyrimidin-4-yl)-methanol] | – | 3 to 7 | 500 to 5000 | 10000 to 15000
14 | COc1cncnc1C(O)c1cc(-c2ncnc3cc(N4CCOCC4)ccc23)ccc1Cl (stereo not drawn) [Example 409, [2-Chloro-5-(7-morpholin-4-yl-quinazolin-4-yl)-phenyl]-(5-methoxy-pyrimidin-4-yl)-methanol] | > 25000 | 3 to 7 | 500 to 5000 | –
15 | COc1nccnc1C(O)c1cc(-c2ncnc3cc(N4CCOCC4)ccc23)ccc1Cl (stereo not drawn) [Example 410, [2-Chloro-5-(7-morpholin-4-yl-quinazolin-4-yl)-phenyl]-(3-methoxy-pyrazin-2-yl)-methanol] | < 10000 | < 3 | < 500 | –
16 | COc1nccnc1[C@@H](O)c1cc(-c2ncnc3cc(N4CCOCC4)ccc23)ccc1Cl [Example 411, (S)-[2-Chloro-5-(7-morpholin-4-yl-quinazolin-4-yl)-phenyl]-(3-methoxy-pyrazin-2-yl)-methanol] | – | 3 to 7 | 500 to 5000 | 10000 to 15000
17 | OC(c1cc(-c2ncnc3cc(N4CCOCC4)ccc23)ccc1Cl)c1ncncc1F (stereo not drawn) [Example 412, [2-Chloro-5-(7-morpholin-4-yl-quinazolin-4-yl)-phenyl]-(5-fluoro-pyrimidin-4-yl)-methanol] | – | 7 to 30 | 5000 to 10000 | 15000 to 25000
18 | COc1cncnc1C(O)c1cc(-c2ncnc3cc(N4CCOCC4)ccc23)ccc1Cl (stereo not drawn) [Example 413, [2-Chloro-5-(7-morpholin-4-yl-quinazolin-4-yl}-phenyl]-(5-methoxy-pyrimidin-4-yl)-methanol] | – | 3 to 7 | 500 to 5000 | 15000 to 25000
19 | OC(c1cc(-c2ncnc3cc(N4CCOCC4)ccc23)ccc1Cl)c1ncnc2ccoc12 (stereo not drawn) [Example 414, [2-Chloro-5-(7-morpholin-4-yl-quinazolin-4-yl)-phenyl]furo[3,2-d}-pyrimidin-4-yl-methanol] | – | 7 to 30 | < 500 | 10000 to 15000
20 | OC(c1cc(-c2ncnc3cc(N4CCOCC4)ccc23)ccc1Cl)c1ncnc2ccoc12 (stereo not drawn) [Example 415, [2-Chloro-5-(7-morpholin-4-yl-quinazolin-4-yl)-phenyl]furo[3,2-d}-pyrimidin-4-yl-methanol] | 10000 to 15000 | 3 to 7 | < 500 | –
21 | OC(c1cc(-c2ncnc3cc(N4CCOCC4)ccc23)ccc1Cl)c1ncnc2occc12 (stereo not drawn) [Example 416, [2-Chloro-5-(7-morpholin-4-yl-quinazolin-4-yl)-phenyl]furo[2,3-d}-pyrimidin-4-yl-methanol] | – | 3 to 7 | 500 to 5000 | 10000 to 15000
22 | Cc1cncnc1C(O)c1cc(-c2ncnc3cc(N4CCOCC4)ccc23)ccc1Cl (stereo not drawn) [Example 417, [2-Chloro-5-(7-morpholin-4-yl-quinazolin-4-yl)-phenyl]-(5-methyl-pyrimidin-4-yl)-methanol] | – | 7 to 30 | 500 to 5000 | 15000 to 25000
23 | Cc1cncnc1C(O)c1cc(-c2ncnc3cc(N4CCOCC4)ccc23)ccc1Cl (stereo not drawn) [Example 418, [2-Chloro-5-(7-morpholin-4-yl-quinazolin-4-yl)-phenyl]-(5-methyl-pyrimidin-4-yl)-methanol] | > 25000 | 7 to 30 | 500 to 5000 | –
24 | Cc1cncnc1C(O)c1cc(-c2ncnc3cc(N4CCOCC4)ccc23)ccc1Cl (stereo not drawn) [Example 419, [2-Chloro-5-(7-morpholin-4-yl-quinazolin-4-yl)-phenyl]-(5-methyl-pyrimidin-4-yl)-methanol] | 15000 to 25000 | 7 to 30 | 500 to 5000 | –
25 | Cn1cnc2c(C(O)c3ccc(F)c(-c4ncnc5cc(N6CCOCC6)ccc45)c3)ncnc21 (stereo not drawn) [Example 420, [4-Fluoro-3-(7-morpholin-4-yl-quinazolin-4-yl)-phenyl]-(9-methyl-9H-purin-6-yl)-methanol] | > 25000 | 7 to 30 | 5000 to 10000 | –
26 | Cn1cnc2c(C(O)c3cc(-c4ncnc5cc(N6CCOCC6)ccc45)c(F)cc3F)ncnc21 (stereo not drawn) [Example 421, [2.4-Difluoro-5-(7-morpholin-4-yl-quinazolin-4-yl)-phenyl]-(9-methyl-9H-purin-6-yl)-methanol] | > 25000 | 7 to 30 | 500 to 5000 | –
27 | COc1nccnc1C(O)c1cc(-c2ncnc3cc(N4CCOCC4)ccc23)ccc1Cl (stereo not drawn) [Example 422, [2-Chloro-5-(7-morpholin-4-yl-quinazolin-4-yl)-phenyl]-(3-methoxy-pyrazin-2-yl)-methanol] | 10000 to 15000 | 3 to 7 | 500 to 5000 | –
28 | Cn1cnc2ncnc(C(O)c3cc(-c4ncnc5cc(N6CCOCC6)ccc45)c(F)cc3Cl)c21 (stereo not drawn) [Example 423, [2-Chloro-4-fluoro-5-(7-morpholin-4-yl-quinazolin-4-yl)-phenyl]-(7-methyl-7H-purin-6-yl)-methanol] | > 25000 | 7 to 30 | 5000 to 10000 | –
29 | CN1CCN(c2nccnc2C(O)c2ccc(F)c(-c3ncnc4cc(N5CCOCC5)ccc34)c2)C1=O (stereo not drawn) [Example 424, 1-(3-{[4-Fluoro-3-(7-morpholin-4-yl-quinazolin-4-yl)-phenyl]hydroxy-methyl}pyrazin-2-yl)-3-methyl-imidazolidin-2-one] | > 25000 | > 30 | 10000 to 30000 | –
